The values that follow are results of earlier work, collected in EP4101443A1, “HOT-MELT COATED PARTICLES WITH PH-DEPENDENT RELEASE” (HERMES PHARMA GmbH, priority 2021, dated 2022).

Values after ≈ are worked out from the molar mass of the structure shown.

On to `CC(=O)Oc1ccccc1C(=O)O` [ASA, acetylsalicylic acid], for which the solubility (commonly how much of the substance goes into solution per volume) was 2.24 mg/mL (≈ 12.4 mM). `CC(=O)N[C@@H](CS)C(=O)O` [NAC, N-acetylcysteine]: the solubility was 200 mg/mL (≈ 1230 mM).
